Patent US20020115710A1, “Composition and method” (priority 2000, published 2002)

Legend:
GSH:GSSG ratio = GSH:GSSG ratio in isolated blood lymphocytes of dogs fed dl-alpha lipoic acid (Example 3); format: in vivo
Text: (§1) 30 adult, random source, dogs were utilized for this study. Dogs were at least 10 months of age, not pregnant, not lactating and of reasonable body weight prior to start of test. Animals were randomized into 5 groups for dietary treatment with 3 males and 3 females per each group.
All dogs were fed a control food (0 ppm dl-alpha-lipoic acid added) that met or exceeded all recommendations for nutrients as proposed by the American Association of Feed Control Officials (AAFCO 2000) during a 2 week prefeeding period (Table 1). Following the prefeeding period dogs were randomized into 5 treatment groups with one of the following dl-alpha lipoic acid target-inclusions (dry matter basis): 0 ppm, 150 ppm, 1500 ppm, 3000 ppm, 4500 ppm. In all diets, control and alpha lipoic acid, Vitamin E was added and was present at a level of 600-1000 International Units and Vitamin C was added at levels of 100-200 ppm.
Blood was collected aseptically for complete blood count, and blood biochemistry analysis 2 weeks prior to start and again at 0, 28, 56, 84, 112, 140 and 168 days of the study. In addition, 15 ml of whole blood was collected for isolation of lymphocytes at day 0, 28 and 84 of the dietary intervention.
Heparainzed whole blood was layered onto a 50 ml Accuspin conical centrifuge tube (Sigma Chemical) and an equal volume of Phosphate buffered saline (PBS) was added. Samples were centrifuged at 700 g for 30 minutes without brake. The monocyte layer was harvested, transferred to a 15 ml conical centrifuge tube, resuspended in 1-3 ml of PB, and centrifuged as before (First wash). A second wash was performed as the first wash. Finally, cells were harvested and suspended in perchloric acid (10%w/v) and frozen at −−70C until analysis.
Samples were transferred from −70° C. freezer into a cooler with dry ice in it. Vials were centrifuged at 12,000 rpm for 5 minutes in a refrigerated centrifuge. An aliquot of supernatant for glutathione (GSH) analysis was transferred to a conical test tube.
Derivatization of the acid soluble extracts was by the method of Reed and coworkers (Fariss et al) as modified by Jones (Jones et al)
Briefly, 150 μl extract or external standards were added into a 1.5 ml eppendorf tube followed by addition of 20 μl γ-glu-glu internal standard and 50 μl IAA added followed by mixing. The solution was adjusted to pH ˜10 (purple color) by using KOH—KHCO3 working solution. Solutions were incubated 1 hr. under room temperature in the dark. Sanger's reagent was added at the same volume as of the total volume and the solution was incubated overnight (20 hrs) in the dark at room temperature.
After incubation, the solution was centrifuged at 12000 rpm for 5 minutes with the supernatant transferred into another 1.5 ml eppendorf tube.
Solvents and separation conditions were as described (Fariss, Jones). Levels of GSH and GSSG were quantified relative to authentic standards. Gamma-glutamyl-glutamate was used as an internal standard to assess derivatization efficiency.
Comparison of values for clinical chemistry, hematology and body weights vs baseline were analyzed by way of paired t-test on SAS for windows with significance set at P<0.05. Means of values at each measured time point were separated by a one-way ANOVA with significance set at P<0.05. The difference in GSH:GSSG between day 84 and baseline were analyzed between groups by way of SAS for windows in a one-way ANOVA with significance set at P<0.05.

dogs = assay: Feeding safety study of dl-alpha lipoic acid in food: body weight, physical examination, serum biochemistry, hematology (Example 3); format: in vivo
Text: as §1
All dogs were fed a control food (0 ppm dl-alpha-lipoic acid added) that met or exceeded all recommendations for nutrients as proposed by the American Association of Feed Control Officials (AAFCO 2000) during a 2 week prefeeding period (Table 1). […]
Test foods were the sole source of nutrients except for water. […] After dogs were selected and initial body weights taken, a food dose was calculated for each dog based on the expected ME of the food. Initial food dose calculations were based on the maintenance energy requirement (MER) for the dog modified by a factor to account for normal activity as calculated by the following formula: […]
Dogs were weighed weekly and had food doses adjusted as needed in order to feed enough food to maintain their optimal body weight. Optimal body weight was determined to be 3 on a 5 point scale. […] All measures of body weight and food intake were recorded. […]
Comparison of values for clinical chemistry, hematology and body weights vs baseline were analyzed by way of paired t-test on SAS for windows with significance set at P<0.05. […]

O=C(O)CCCCC1CCSS1 (racemic) [dl-alpha-lipoic acid]
Difference in GSH:GSSG ratio-d 0 to d 84 compared to baseline food (GSH:GSSG ratio; 150 ppm inclusion in extruded food, N 6): 70 ± 20
Difference in GSH:GSSG ratio-d 0 to d 84 compared to baseline food (GSH:GSSG ratio; 1500 ppm inclusion in extruded food, N 6): 24 ± 7
Difference in GSH:GSSG ratio-d 0 to d 84 compared to baseline food (GSH:GSSG ratio; 3000 ppm inclusion in extruded food, N 4): 10 ± 4
Difference in GSH:GSSG ratio-d 0 to d 84 compared to baseline food (GSH:GSSG ratio; 4500 ppm inclusion in extruded food, N 4): 50 ± 36
effect on reduced glutathione (GSH) to oxidized glutathione (GSSG) ratio (GSH:GSSG ratio; 84 days of feeding in diet): improves
safety of chronic feeding in diet (dogs; dog, in vivo): safe
vomiting during the study (dogs; dogs, no trend attributable to lipoic acid): Occasional vomiting was observed in several animals
